Measurements: ChEMBL document CHEMBL1144081, “Sesquiterpene lactones from neurolaena oaxacana” (1999)
≈ marks a conversion by molar mass, not a printed value.

Columns and labels:
Entamoeba histolytica = assay: […] activity against Entamoeba histolytica; assay type: functional
Giardia intestinalis = assay: Antigiardial activity against Giardia intestinalis; assay type: functional; settings: Giardia duodenalis

MIC (Entamoeba histolytica) [µM] | MIC (Giardia intestinalis) [µM] | Compound
2.9 (≈ 1.39 µg/mL) | – | CC[C@H]1CN2CCc3cc(OC)c(OC)cc3[C@@H]2C[C@@H]1C[C@H]1NCCc2cc(OC)c(OC)cc21 [EMETINE]
– | 1.17 (≈ 0.2 µg/mL) | Cc1ncc([N+](=O)[O-])n1CCO [METRONIDAZOLE]
7.6 (≈ 3.21 µg/mL) | 3.8 (≈ 1.61 µg/mL) | C=C1C(=O)O[C@@H]2C[C@@H](C)/C=C\C(=O)[C@@](C)(O)[C@H](OC(C)=O)[C@@H](OC(=O)CC(C)C)[C@@H]12 [NEUROLENIN B]
